{
  "source": "patent US8852618B2",
  "about": "“Insecticidal mixture containing gamma-cyhalothrin” (Syngenta Limited, priority 2001, dated 2014)",
  "key": {"Myzus persicae": {"tested_on": "Myzus persicae", "assay": "Sprayed Chinese cabbage leaf disc aphid test, mortality after 3 days", "settings": "in Brassica rapa, foliar, 72 h", "description": "(§1) For Heliothis and Spodoptera testing cotton leaves were sprayed in a Berkhard Potter Tower, left to dry for 1 hour and then placed on the top of pots containing twenty 1st instar Heliothis virescens/Spodoptera littoralis larvae. These were stored in a test holding room at 25° C. for 3 days and the test species assessed for mortality. For aphid testing Leaf discs were cut from excised Chinese cabbage leaves and placed on agar in test pots. R2 Myzus persicae were transferred from the culture on radish cotyledons and left overnight. The dried cotyledons were removed, leaving approximately 20-25 aphids on each leaf disc. The pots were sprayed in a Berkhard Potter Tower. Once dry, ventilated lids were placed on the top. These were stored in a Weiss Room at 20° C. for 3 days and the test species assessed for mortality. All tests included a Synperonic NP8 control. […] Any increase in the expected amount of mortality may be attributed to synergism. This is calculated in the following way: Expected mortality from mixture=% mortality of mixture partner A+(100%−% mortality of A)*(% mortality of mixture partner B). The results are set out in Tables I-III."}, "Heliothis virescens": {"tested_on": "Heliothis virescens", "assay": "Sprayed cotton leaf test, mortality of 1st instar larvae after 3 days", "description": "as §1"}, "Spodoptera littoralis": {"tested_on": "Spodoptera littoralis", "assay": "Sprayed cotton leaf test, mortality of 1st instar larvae after 3 days", "settings": "for Observed % mortality Other ai: 3 days", "description": "as §1"}, "[1]": {"settings": "read-out: Observed % mortality Other"}, "[2]": {"settings": "Spodoptera littoralis, in Gossypium hirsutum, 72 h, read-out: Observed % mortality Gamma"}, "[3]": {"settings": "read-out: Observed % mortality Gamma"}},
  "note": "Where “and” joins values, the source holds several entries; their conditions need not be identical. Identical values can stand only once. Like-named read-outs stand apart in the source and are kept apart here.",
  "data": [
    {"compound": "CN1COCN(Cc2cnc(Cl)s2)/C1=N\\[N+](=O)[O-]", "note": "[Thiamethoxam, thiamethoxam]", "values": [
      {"measurement": "mortality at 1.25 ppm", "setting": "Myzus persicae; [1]", "value": 70, "unit": "%"},
      {"measurement": "mortality at 2.5 ppm", "setting": "Myzus persicae; [1]", "value": 92, "unit": "%"},
      {"measurement": "mortality at 5 ppm", "setting": "Myzus persicae; [1]", "value": 94, "unit": "%"}
    ]},
    {"compound": "abamectin", "values": [
      {"measurement": "Observed % mortality Other ai", "setting": "Heliothis virescens; other ai alone 0.25 ppm", "value": 0, "unit": "%"},
      {"measurement": "Observed % mortality Other ai", "setting": "Heliothis virescens; other ai alone 0.50 ppm", "value": 0, "unit": "%"},
      {"measurement": "Observed % mortality Other ai", "setting": "Heliothis virescens; other ai alone 1.00 ppm", "value": 0, "unit": "%"}
    ]},
    {"compound": "CCOP(=S)(OCC)Oc1nc(Cl)c(Cl)cc1Cl", "note": "[Chlorpyrifos, chlorpyrifos]", "values": [
      {"measurement": "mortality at 2.5 ppm", "setting": "Heliothis virescens; Heliothis virescens, in Gossypium hirsutum, 72 h, read-out: Observed % mortality Other ai, other ai alone 2.50 ppm", "value": 36, "unit": "%"},
      {"measurement": "mortality at 5 ppm", "setting": "Heliothis virescens; Heliothis virescens, in Gossypium hirsutum, 72 h, read-out: Observed % mortality Other ai, other ai alone 5.00 ppm", "value": 29, "unit": "%"},
      {"measurement": "mortality at 10 ppm", "setting": "Heliothis virescens; Heliothis virescens, in Gossypium hirsutum, 72 h, read-out: Observed % mortality Other ai, other ai alone 10.00 ppm", "value": 44, "unit": "%"}
    ]},
    {"compound": "COC(=O)N(C(=O)N1CO[C@@]2(C(=O)OC)Cc3cc(Cl)ccc3C2=N1)c1ccc(OC(F)(F)F)cc1", "note": "[Indoxacarb]", "values": [
      {"measurement": "Observed % mortality Other ai", "setting": "Heliothis virescens; other ai alone 0.20 ppm", "value": "26% and 22%"},
      {"measurement": "Observed % mortality Other ai", "setting": "Heliothis virescens; other ai alone 0.80 ppm", "value": "26% and 46%"}
    ]},
    {"compound": "CC1(C)[C@H](C(=O)O[C@H](C#N)c2cccc(Oc3ccccc3)c2)[C@@H]1/C=C(\\Cl)C(F)(F)F", "note": "[Gamma, (S)-α-cyano-3-phenoxybenzyl (Z)-(1R,3R)-3-(2-chloro-3,3,3-trifluoro-1-propenyl)-2,2-dimethylcyclopropanecarboxylate]", "values": [
      {"measurement": "Observed % mortality Gamma", "setting": "Heliothis virescens; Gamma alone 0.25 ppm", "value": 28, "unit": "%"},
      {"measurement": "Observed % mortality Gamma", "setting": "Heliothis virescens; Gamma alone 0.50 ppm", "value": 28, "unit": "%"},
      {"measurement": "Observed % mortality Gamma", "setting": "Heliothis virescens; Gamma alone 1.00 ppm", "value": 28, "unit": "%"},
      {"measurement": "mortality at 0.25 ppm", "setting": "Heliothis virescens; Heliothis virescens, in Gossypium hirsutum, 72 h, read-out: Observed % mortality Gamma, Gamma alone 0.25 ppm", "value": 32, "unit": "%"},
      {"measurement": "mortality at 0.5 ppm", "setting": "Heliothis virescens; Heliothis virescens, in Gossypium hirsutum, 72 h, read-out: Observed % mortality Gamma, Gamma alone 0.50 ppm", "value": 32, "unit": "%"},
      {"measurement": "mortality at 1 ppm", "setting": "Heliothis virescens; Heliothis virescens, in Gossypium hirsutum, 72 h, read-out: Observed % mortality Gamma, Gamma alone 1.00 ppm", "value": 46, "unit": "%"},
      {"measurement": "mortality at 0.025 ppm", "setting": "Spodoptera littoralis; [2]", "value": 0, "unit": "%"},
      {"measurement": "mortality at 0.05 ppm", "setting": "Spodoptera littoralis; [2]", "value": 25, "unit": "%"},
      {"measurement": "mortality at 0.1 ppm", "setting": "Spodoptera littoralis; [2]", "value": 90, "unit": "%"},
      {"measurement": "mortality at 0.25 ppm", "setting": "Myzus persicae; [3]", "value": 70, "unit": "%"},
      {"measurement": "mortality at 0.5 ppm", "setting": "Myzus persicae; [3]", "value": 69, "unit": "%"},
      {"measurement": "mortality at 1 ppm", "setting": "Myzus persicae; [3]", "value": 98, "unit": "%"}
    ]},
    {"compound": "emamectin benzoate", "values": [
      {"measurement": "Observed % mortality Other ai", "setting": "Heliothis virescens; other ai alone 0.13 ppm", "value": "97% and 96%"},
      {"measurement": "Observed % mortality Other ai", "setting": "Heliothis virescens; other ai alone 0.25 ppm", "value": "97% and 96% and 99%"},
      {"measurement": "Observed % mortality Other ai", "setting": "Heliothis virescens; other ai alone 0.50 ppm", "value": "96% and 99%"},
      {"measurement": "Observed % mortality Other ai", "setting": "Spodoptera littoralis; other ai alone 0.0025 ppm", "value": 0, "unit": "%"},
      {"measurement": "Observed % mortality Other ai", "setting": "Spodoptera littoralis; other ai alone 0.005 ppm", "value": 6, "unit": "%"},
      {"measurement": "Observed % mortality Other ai", "setting": "Spodoptera littoralis; other ai alone 0.01 ppm", "value": 0, "unit": "%"}
    ]},
    {"compound": "CC1(C)[C@H](C(=O)O[C@H](C#N)c2cccc(Oc3ccccc3)c2)[C@@H]1/C=C(\\Cl)C(F)(F)F", "note": "(racemic) [Lambda-cyhalothrin, lambda-cyhalothrin]", "values": [
      {"measurement": "mortality at 0.25 ppm", "setting": "Heliothis virescens; Heliothis virescens, in Gossypium hirsutum, 72 h, read-out: Observed % mortality Other ai, other ai alone 0.25 ppm", "value": 46, "unit": "%"},
      {"measurement": "mortality at 0.5 ppm", "setting": "Heliothis virescens; Heliothis virescens, in Gossypium hirsutum, 72 h, read-out: Observed % mortality Other ai, other ai alone 0.50 ppm", "value": 50, "unit": "%"},
      {"measurement": "mortality at 1 ppm", "setting": "Heliothis virescens; Heliothis virescens, in Gossypium hirsutum, 72 h, read-out: Observed % mortality Other ai, other ai alone 1.00 ppm", "value": 46, "unit": "%"},
      {"measurement": "Observed % mortality Other ai", "setting": "Heliothis virescens; other ai alone 0.50 ppm", "value": 52, "unit": "%"},
      {"measurement": "Observed % mortality Other ai", "setting": "Heliothis virescens; other ai alone 1.00 ppm", "value": 52, "unit": "%"},
      {"measurement": "mortality at 0.125 ppm", "setting": "Myzus persicae; [1]", "value": 10, "unit": "%"},
      {"measurement": "mortality at 0.25 ppm", "setting": "Myzus persicae; [1]", "value": 4, "unit": "%"},
      {"measurement": "mortality at 0.5 ppm", "setting": "Myzus persicae; [1]", "value": 14, "unit": "%"}
    ]}
  ]
}
